Assay [1] relates to HCV replicon in Huh7 cells. Nature of the assay: HCV replicon cell-based assay. Also on record: species or system HCV strain 1B. The settings on record: Hepatitis C virus, Huh-7, 96 h, HCV replicon, 4 days, read-out: EC50 range. The source says:
HCV Replicon Cell-based Assay
An HCV replicon whole cell system was established as described by Lohmann V, Komer F, Koch J, Herian U, Theilmann L, Bartenschlager R., Science 285(5424):110–3 (1999). This system enabled us to evaluate the effects of our HCV Protease compounds on HCV RNA replication. Briefly, using the HCV strain 1B sequence described in the Lohmann paper (Assession number:AJ238799), an HCV cDNA was generated encoding the 5′ internal ribosome entry site (IRES), the neomycin resistance gene, the EMCV (encephalomyocarditis viurs)-IRES and the HCV nonstructural proteins, NS3-NS5B, and 3′ non-translated region (NTR). In vitro transcripts of the cDNA were transfected into the human hepatoma cell line, Huh7. […] Resulting cell lines were characterized for positive and negative strand RNA production and protein production over time.
Huh7 cells, constitutively expressing the HCV replicon, were grown in Dulbecco's Modified Eagle Media (DMEM) containing 10% Fetal calf serum (FCS) and 1 mg/ml G418 (Gibco-BRL). Cells were seeded the night before (1.5×10^4 cells/well) in 96-well tissue-culture sterile plates. Compound and no compound controls were prepared in DMEM containing 4% FCS, 1:100 Penicillin/Streptomysin, 1:100 L-glutamine and 5% DMSO in the dilution plate (0.5% DMSO final concentration in the assay). Compound/DMSO mixes were added to the cells and incubated for 4 days at 37° C. After 4 days, plates were rinsed thoroughly with Phosphate-Buffered Saline (PBS) (3 times 150 μl). The cells were lysed with 25 μl of a lysis assay reagent containing the FRET peptide (RET S1, as described for the in vitro enzyme assay). The lysis assay reagent was made from 5× cell Luciferase cell culture lysis reagent (Promega #E153A) diluted to 1× with distilled water, NaCl added to 150 mM final, the FRET peptide diluted to 10 μM final from a 2 mM stock in 100% DMSO. The plate was then placed into the Cytofluor 4000 instrument which had been set to 340 nm excitation/490 emission, automatic mode for 21 cycles and the plate read in a kinetic mode. EC50 determinations were carried out as described for the IC50 determinations.
As a secondary assay, EC50 determinations from the replicon FRET assay were confirmed in a quantitative RNA assay. Cells were lyzed using the Rneasy kit (Qiagen). Purified total RNA was normalized using RiboGreen (Jones L J, Yue S T, Cheung C Y, Singer V L, Anal. Chem., 265(2):368–74 (1998)) and relative quantitation of HCV RNA expression assessed using the Taqman procedure (Kolykhalov A A, Mihalik K, Feinstone S M, Rice C M, Journal of Virology 74, 2046–2051 (2000)) and the Platinum Quantitative RT-PCR Thermoscript One-Step kit (Invitrogen cat # 11731-015). Briefly, RNA made to a volume of 5 μl (<1 ng) was added to a 20 μl Ready-Mix containing the following: 1.25× Thermoscript reaction mix (containing Magnesium Sulfate and 2-deoxynucleoside 5′-triphosphates (dNTPs)), 3 mM dNTPs, 200 nM forward primer (sequence: 5′-[…]-3′), 600 nM reverse primer (5′-[…]-3′), 100 nM probe (5′-6-FAM-[…]-BHQ-1-3′)(FAM: Fluorescein-aminohexyl amidite; BHQ: Black Hole Quencher), 1 μM Rbx reference dye (Invitrogen cat # 12223-012) and Thermoscript Plus Platinum Taq polymerase mixture. All primers were designed with ABI Prism 7700 software and obtained from Biosearch Technologies, Novato, Calif. Samples containing known concentrations of HCV RNA transcript were run as standards. Using the following cycling protocol (50° C., 30 min; 95° C., 5 min; 40 cycles of 95° C., 15 sec, 60° C., 1 min), HCV RNA expression was quantitated as described in the Perkin Elmer manual using the ABI Prism 7700 Sequence Detector.
The luciferase reporter assay was also used to confirm compound potency in the replicon. Utilization of a replicon luciferase reporter assay was first described by Krieger et al (Krieger N, Lohmann V, and Bartenschlager R, J. Virol. 75(10):4614–4624 (2001)). […]

The target in assay [2] is T1, HCV NS3/4A protease complex (UniProt P27958, C1454S/C1711G, species not given).
T1 construct: fused on or other part: Three-lysine solubilising tail at the C-terminus of NS4A
Nature of the assay: Recombinant HCV NS3/4A protease complex FRET peptide assay (strain not stated). Format: biochemical. The settings on record: HCV NS3/4A protease enzyme assay, read-out: IC50 range. The source says:
Recombinant HCV NS3/4A Protease Complex FRET Peptide Assay
The purpose of this in vitro assay was to measure the inhibition of HCV NS3 protease complexes, derived from the BMS, H77C or J416S strains, as described below, by compounds of the present invention. This assay provides an indication of how effective compounds of the present invention would be in inhibiting HCV proteolytic activity.
Serum from an HCV-infected patient was obtained from Dr. T. Wright, San Francisco Hospital. An engineered full-length cDNA (compliment deoxyribonucleic acid) template of the HCV genome (BMS strain) was constructed from DNA fragments obtained by reverse transcription-PCR (RT-PCR) of serum RNA (ribonucleic acid) and using primers selected on the basis of homology between other genotype 1a strains. From the determination of the entire genome sequence, a genotype 1a was assigned to the HCV isolate according to the classification of Simmonds et al. (See P Simmonds, K A Rose, S Graham, S W Chan, F McOmish, B C Dow, E A Follett, P L Yap and H Marsden, J. Clin. Microbiol., 31(6), 1493–1503 (1993)). […] The infectious clones, H77C (1a genotype) and J4L6S (1b genotype) were obtained from R. Purcell (NIH) and the sequences are published in Genbank (AAB67036, see Yanagi, M., Purcell, R. H., Emerson, S. U. and Bukh, J. Proc. Natl. Acad. Sci. U.S.A. 94(16),8738–8743 (1997); AF054247, see Yanagi, M., St Claire, M., Shapiro, M., Emerson, S. U., Purcell, R. H. and Bukh, J, Virology 244 (1), 161–172. (1998)).
The BMS, H77C and J4L6S strains were used for production of recombinant NS3/4A protease complexes. DNA encoding the recombinant HCV NS3/4A protease complex (amino acids 1027 to 1711) for these strains were manipulated as described by P. Gallinari et al. (see Gallinari P, Paolini C, Brennan D, Nardi C, Steinkuhler C, De Francesco R. Biochemistry. 38(17):5620–32, (1999)). Briefly, a three-lysine solubilizing tail was added at the 3′-end of the NS4A coding region. The cysteine in the P1 position of the NS4A-NS4B cleavage site (amino acid 1711) was changed to a glycine to avoid the proteolytic cleavage of the lysine tag. Furthermore, a cysteine to serine mutation was introduced by PCR at amino acid position 1454 to prevent the autolytic cleavage in the NS3 helicase domain. The variant DNA fragment was cloned in the pET21b bacterial expression vector (Novagen) and the NS3/4A complex was expressed in Escherichia. coli strain BL21 (DE3) (Invitrogen) following the protocol described by P. Gallinari et al. (see Gallinari P, Brennan D, Nardi C, Brunetti M, Tomei L, Steinkuhler C, De Francesco R., J. Virol. 72(8):6758–69 (1998)) with modifications. Briefly, NS3/4A expression was induced with 0.5 mM Isopropyl β-D-1-thiogalactopyranoside (IPTG) for 22 hr at 20° C. A typical fermentation (10L) yielded approximately 80 g of wet cell paste. The cells were resuspended in lysis buffer (10 mL/g) consisting of 25 mM N-(2-Hydroxyethyl)Piperazine-N′-(2-Ethane Sulfonic acid) (HEPES), pH7.5, 20% glycerol, 500 mM Sodium Chloride (NaCl), 0.5% Triton-X100, 1 ug/ml lysozyme, 5 mM Magnesium Chloride (MgCl2), lug/ml Dnasel, 5 mM β-Mercaptoethanol (βME), Protease inhibitor—Ethylenediamine Tetraacetic acid (EDTA) free (Roche), homogenized and incubated for 20 mins at 4° C. The homogenate was sonicated and clarified by ultra-centrifugation at 235000 g for 1 hr at 4° C. Imidazole was added to the supernatant to a final concentration of 15 mM and the pH adjusted to 8.0. The crude protein extract was loaded on a Nickel-Nitrilotriacetic acid (Ni-NTA) column pre-equilibrated with buffer B (25 mM HEPES, pH 8.0, 20% glycerol, 500 mM NaCl, 0.5% Triton-X100, 15 mM imidazole, 5 mM βME). The sample was loaded at a flow rate of 1 mL/min. The column was washed with 15 column volumes of buffer C (same as buffer B except with 0.2% Triton-X100). The protein was eluted with 5 column volumes of buffer D (same as buffer C except with 200 mM Imidazole). […]

We go through ten compounds from patent US7041698B2, “Hepatitis C virus inhibitors” (Bristol-Myers Squibb Company, priority 2002, dated 2006).

Molecules are shown by their SMILES.

`C=CC1C[C@]1(NC(=O)[C@@H]1C[C@@H](OC(=O)Nc2ccc3c(c2)OCO3)CN1C(=O)[C@@H](NC(=O)OC(C)(C)C)C(C)(C)C)C(=O)NS(=O)(=O)C1CC1` (stereo partly drawn) [Compound 10, BocNH-P3(t-BuGly)-P2(Hyp(O—CO(NH-Benzo[1,3]dioxol-5-yl)))-P1(1R,2S VinylAcca)—CONHSO2Cyclopropane]: in assay [1], the EC50 is greater than 10000 nM. The IC50 in assay [2] fell in the range of 100 to 1000 nM.
`C=CC1C[C@]1(NC(=O)[C@@H]1C[C@@H](OC(=O)NCc2ccc(OC)cc2)CN1C(=O)[C@@H](NC(=O)OC(C)(C)C)C(C)(C)C)C(=O)NS(=O)(=O)C1CC1` (stereo partly drawn) [Compound 11, BocNH-P3(t-BuGly)-P2(Hyp(O—CO(NH—(4-methoxy-benzyl))))-P1(1R,2S VinylAcca)—CONHSO2Cyclopropane]: in assay [1], the EC50 fell in the range of 1000 to 10000 nM. Further, the IC50 in assay [2] is 100 to 1000 nM.
On the same counts, the results for `C=CC1C[C@]1(NC(=O)[C@@H]1C[C@@H](OC(=O)N[C@H](C(=O)OC)[C@@H](C)CC)CN1C(=O)[C@@H](NC(=O)OC(C)(C)C)C(C)(C)C)C(=O)NS(=O)(=O)C1CC1` (stereo partly drawn) [Compound 12, BocNH-P3(t-BuGly)-P2(Hyp(O—CO(NH-2-[(2S,3S)-3-methylvaleric acid methyl ester])))-P1(1R,2S VinylAcca)—CONHSO2Cyclopropane] are greater than 10000 nM and 1000 to 10000 nM.
For the compound `C=CC1C[C@]1(NC(=O)[C@@H]1C[C@@H](OC(=O)N2CCCC2)CN1C(=O)[C@@H](NC(=O)OC(C)(C)C)C(C)(C)C)C(=O)NS(=O)(=O)C1CC1` (stereo partly drawn) [Compound 13, BocNH-P3(t-BuGly)-P2(Hyp(O—CO(N,N-(pyrrolidino))))-P1(1R,2S VinylAcca)—CONHSO2Cyclopropane], the EC50 in assay [1] is greater than 10000 nM. The IC50 in assay [2] was 100 to 1000 nM.
Regarding `C=CC1C[C@]1(NC(=O)[C@@H]1C[C@@H](OC(=O)N2CCCCC2)CN1C(=O)[C@@H](NC(=O)OC(C)(C)C)C(C)(C)C)C(=O)NS(=O)(=O)C1CC1` (stereo partly drawn) [Compound 14, BocNH-P3(t-BuGly)-P2(Hyp(O—CO(N,N-(piperdino))))-P1(1R,2S VinylAcca)—CONHSO2Cyclopropane], the EC50 in assay [1] was in the range of 1000 to 10000 nM. In addition, the IC50 in assay [2] fell in the range of 100 to 1000 nM.
As to `C=CC1C[C@]1(NC(=O)[C@@H]1C[C@@H](OC(=O)Nc2cc([N+](=O)[O-])ccc2C)CN1C(=O)[C@@H](NC(=O)OC(C)(C)C)C(C)(C)C)C(=O)NS(=O)(=O)C1CC1` (stereo partly drawn) [Compound 15, BocNH-P3(t-BuGly)-P2(Hyp(O—CO(NH—(2-methyl-5-nitro-phenyl))))-P1(1R,2S VinylAcca)—CONHSO2Cyclopropane], the EC50 in assay [1] lay in the range of 1000 to 10000 nM. Moreover, the IC50 in assay [2] was less than 100 nM.
The like results for `C=CC1C[C@]1(NC(=O)[C@@H]1C[C@@H](OC(=O)Nc2ccc(F)c(F)c2F)CN1C(=O)[C@@H](NC(=O)OC(C)(C)C)C(C)(C)C)C(=O)NS(=O)(=O)C1CC1` (stereo partly drawn) [Compound 16, BocNH-P3(t-BuGly)-P2(Hyp(O—CO(NH—(2,3,4-trifluoro-phenyl))))-P1(1R,2S VinylAcca)—CONHSO2Cyclopropane] were, in that order, 1000 to 10000 nM and 100 to 1000 nM.
On to `C=CC1C[C@]1(NC(=O)[C@@H]1C[C@@H](OC(=O)Nc2ccccc2C(C)(C)C)CN1C(=O)[C@@H](NC(=O)OC(C)(C)C)C(C)(C)C)C(=O)NS(=O)(=O)C1CC1` (stereo partly drawn) [Compound 17, BocNH-P3(t-BuGly)-P2(Hyp(O—CO(NH—(2-tert-butyl-phenyl))))-P1(1R,2S VinylAcca)—CONHSO2Cyclopropane], for which, in assay [1], the EC50 lay in the range of 1000 to 10000 nM. The IC50 in assay [2] was in the range of 100 to 1000 nM.
The like results for `C=CC1C[C@]1(NC(=O)[C@@H]1C[C@@H](OC(=O)Nc2cc(Cl)nc(Cl)c2)CN1C(=O)[C@@H](NC(=O)OC(C)(C)C)C(C)(C)C)C(=O)NS(=O)(=O)C1CC1` (stereo partly drawn) [Compound 18, BocNH-P3(t-BuGly)-P2(Hyp(O—CO(NH—(2,6-Dichloro-pyridin-4-yl))))-P1(1R,2S VinylAcca)—CONHSO2Cyclopropane] were, in that order, greater than 10000 nM and 100 to 1000 nM.
On to `C=CC1C[C@]1(NC(=O)[C@@H]1C[C@@H](OC(=O)Nc2ccccc2C(=O)OCC)CN1C(=O)[C@@H](NC(=O)OC(C)(C)C)C(C)(C)C)C(=O)NS(=O)(=O)C1CC1` (stereo partly drawn) [Compound 19, BocNH-P3(t-BuGly)-P2(Hyp(O—CO(NH—(2-benzoic acid ethyl ester))))-P1(1R,2S VinylAcca)—CONHSO2Cyclopropane], for which the EC50 in assay [1] is less than 100 nM. Moreover, the half-maximal inhibitory concentration (IC50) in assay [2] is less than 100 nM.
